Test results from patent US20030005484A1, “Microbiocidal and pesticidal aromatic aldehydes” (ProGuard, Inc., priority 1994, published 2003).

Legend:
grape phylloxera = grape phylloxera adult and nymphal mortality, root dip; format: in vivo, Daktulosphaira vitifoliae; settings: for mortality of adults and nymphs: root dip, 5 days
Experimental: Approximately twenty four eggs of phylloxera were allowed to develop for up to 30 days on standard excised grape roots. At around 30 days, some of the insects were nymphs while others were adults. New eggs were removed during the process. Insect infected roots were submerged into a test formula for 6 seconds then set aside to dry in the air. The percentage of live insects, as defined by growth, oviposition or limb movement, was determined after 5 days. An insect was considered dead if it abandoned its feed site.
In an initial test, doses of 20,000 ppm cinnamic aldehyde in water (i.e., 2% cinnamic aldehyde) with various additives were evaluated. Cinnamic aldehyde without any additives produced 83.3% mortality. With-1% Tween 80 added, 91.7% mortality was seen. With 6% NaHCO3 added to a solution of 2% cinnamic aldehyde, 91.7% mortality was seen. With 1% Tween 80 and 6% NaHCO3 added to a solution of 2% cinnamic aldehyde, 100% mortality was seen. Water with no additives produced no mortality, while a positive control solution of 250 ppm malathion in water gave 100% mortality.
For nymph and adult tests, eggs were placed on excised root pieces similar to those used for rearing purposes and these were sealed in Petri dishes and held at 24° C. for 18-25 days to allow insects to hatch, initiate feeding sites and develop. At about this time about half the population was in the adult stage. Prior to testing, the population on each root was determined as well as the developmental stage of each insect. Eggs were removed. These root pieces were then dipped for 5 sec into test solutions and allowed to air dry before they were returned to Petri dishes, sealed and placed back in the temperature chamber at 24° C. Mortality was determined after 5 days. Insects were considered dead if they appeared black or desiccated and if they had not developed since the pre-treatment reading and had laid no or few new eggs.

[1] = test system: Silverleaf Whitefly (Bemisia argentifolii); experiment: silverleaf whitefly 1st and 2nd instars on poinsettia; format: in vivo; settings: 0.5% cinnamic aldehyde and […] Tween 20, 48 hours
Experimental: Clip cages were set on poinsettia plants leaves to capture white fly adults which then were allowed to oviposit for 48 hours. Four plants per treatment or control were put into an environmental chamber and the eggs allowed to incubate for 5 days until a majority of the eggs had hatched to first and second instar. Three treatments at 0.5% cinnamic aldehyde and 0.25% Tween 20 (T1, T2, T3) and three control treatments of 0.25% Tween 20 only (C1, C2, C3) were sprayed to run off on each plant. Mortality was recorded after 48 hours (see Table 23).

SMILES: O=C/C=C/c1ccccc1 [cinnamic aldehyde]
- mortality of adults and nymphs (grape phylloxera; 2% cinnamic aldehyde with 1% Tween 80): 91.7%
- mortality of adults and nymphs (grape phylloxera; 2% cinnamic aldehyde with 1% Tween 80 and 6% NaHCO3): 100%
- mortality of adults and nymphs (grape phylloxera; 2% cinnamic aldehyde with 6% NaHCO3): 91.7%
- mortality at 20000 ppm (grape phylloxera; Daktulosphaira vitifoliae, 120 h, 2% cinnamic aldehyde (20,000 ppm) in water, no additives, roots submerged 6 seconds, read after 5 days, read-out: mortality of adults and nymphs): 83.3%
- Alive, total of T1-T3 [1]: 35
- Dead, total of T1-T3 [1]: 363
- Mortality (%) ([1]; T1-T3 combined, Tween 20 control 9%): 91%
